{
  "source": "patent US20250255876A1",
  "about": "“COMPOSITIONS AND METHODS FOR CANCER TREATMENT” (ARIEL SCIENTIFIC INNOVATIONS LTD., priority 2021, published 2025)",
  "format_in_all_cases": "cell-based",
  "key": {"U2OS cells": {"tested_on": "U2OS cells", "test": "Colony survival assay, U2OS cells", "conditions": "varying cisplatin, 48 hours", "method": "(§1) H1975 cells were plated in 24-well plates at 50,000 cells/well (for 50 µM inhibitor treatment) or 20,000 cells/well (for […] inhibitor treatment). U2OS and A549 cells were plated in 24-well plates at 5000 cells/well. The next day, cells were treated with varying concentrations of cisplatin, either with or without added inhibitor compound. After 48 hours of cisplatin+compound treatment, the cells were washed 3 times with PBS×1 and fresh media applied. After 4 days of recovery, the cells were stained with methylene blue and imaged using a Nikon SMZ25 stereomicroscope. The images were analyzed using the ImageJ (National Institutes of Health) area measurement tool to quantify total colony size in each well."}, "A549 cells": {"tested_on": "A549 cells", "test": "Colony survival assay, A549 cells", "conditions": "for survival rate, combined treatment: A549, 5 μM cisplatin + 50 μM compound; for toxicity / cell viability, compound alone: A549, 50 μM compound alone; for sensitization effect to cisplatin: A549, cisplatin + 50 μM compound; for cell survival with cisplatin plus inhibitor: A549, varying cisplatin, 48 hours", "method": "as §1\nCells were plated in 24-well plates at 50,000 cells/well (H1975 line) or 10,000 cells/well (A549 line). The next day, cells were treated with varying concentrations of cisplatin ([…]), with or without 50 μM compound. For the untreated control wells containing only cisplatin, DMSO was applied in place of the compound. After 48 hours of cisplatin+compound treatment, the cells were washed 3 times with PBS and fresh media was applied. After 4 days of recovery, the cells were stained with methylene blue and imaged using a Nikon SMZ25 stereomicroscope. The images were analyzed using the ImageJ (National Institutes of Health) area measurement tool to quantify total colony size in each well.\nIn order to assess the ability of the selected compounds to sensitize cells during cisplatin treatment, the inventors established a colony survival assay comparing the viability of cells treated with cisplatin alone or with combined treatment of cisplatin and 50 μM compound. For the compound screen, we used two lung cancer cell lines: human non-small lung carcinoma H1975 cells, and epithelial lung adenocarcinoma A549 cells. Out of ten compounds tested, compounds c #2 and c #3 were identified with the most significant sensitization effect and were chosen for future characterization. […] Survival rate was reduced from 90% in 5 μM cisplatin treatment to 50% survival in the combined treatment (FIGS. 11A-B). H1975 cells presented similar behavior following doxorubicin treatment (FIG. 11C). IC50 was calculated using linear regression, presenting a clear reduction of cisplatin's IC50 in all treatments."}, "MAD2L2": {"target": "MAD2L2 (Homo sapiens, UniProt Q9UI95)", "sequence (Q9UI95 whole entry)": "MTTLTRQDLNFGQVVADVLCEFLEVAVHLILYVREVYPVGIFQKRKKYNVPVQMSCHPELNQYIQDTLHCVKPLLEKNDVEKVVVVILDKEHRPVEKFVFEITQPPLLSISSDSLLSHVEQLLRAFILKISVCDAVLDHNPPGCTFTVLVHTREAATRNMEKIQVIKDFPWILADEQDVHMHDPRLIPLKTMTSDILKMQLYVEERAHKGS", "test": "Cellular thermal shift assay (CETSA) in 293T cells", "conditions": "50 μM, 1 hour", "method": "The in vivo binding of MAD2L2 to the small molecule compounds was detected using the cellular thermal shift assay (CETSA), following their standard protocol. Briefly, 293T cells were grown to confluency and treated for 1 hour with the DMSO or selected compounds at 50 µM. Cells were collected and centrifuged for 3 min at 300 g, washed once with PBS, and each pellet was resuspended in 1 ml of PBS supplemented with Merck® 1000×protease inhibitor (539134). The cell suspensions were aliquoted and incubated for 3 min in the VWR XT96 thermal cycler using a gradient from 40°−55° C. Following heating, the tubes were incubated at room temperature for 3 min and then snap frozen in liquid nitrogen. The samples were then lysed via two subsequent freeze-thaw cycles with vortexing, and the lysates were centrifuged at 20,000 g for 20 min at 4° C. Finally, the cleared lysates were boiled in Laemmli buffer for 5 minutes.\nIn order to validate that MAD2L2 is a direct target of c #2 and c #3, the inventors tested the compounds' binding kinetics to a recombinant protein by Field Effect Biosensing (FEB) technology. Briefly, purified GST-MAD2L2 was immobilized onto a […] chip, and the current across the chip is measured to determine the baseline current. Then, a soluble compound was flowed over the chip. Interaction of the soluble and immobilized molecules yields a detectable change in conductance of the biosensor. The Kon and Koff of the interaction were measured over time and were used to calculate the KD. The binding of both c #2 and c #3 to MAD2L2 is in the micromolar range: 31.08 μM and 44.88 μM, respectively (FIG. 13A). […] The in vivo binding of c #2 or c #3 to MAD2L2 was validated by using a cellular thermal shift assay (CETSA), which is a reliable reporter showing whether a molecule enters the cell and the nucleus and binds to the protein of interest. Briefly, under normal conditions, most of the MAD2L2 protein unfolds, aggregates and disappears from the soluble fraction of the lysate between 46° C. and 49° C. […]"}, "γH2AX foci in A549 cells": {"tested_on": "γH2AX foci in A549 cells", "test": "γH2AX foci immunofluorescence, A549 cells", "conditions": "for cells with more than 80 foci or very bright signal, combined treatment / number of γH2AX foci/cell, combined treatment: A549, 10 μM cisplatin + 50 μM compound; for number of γH2AX foci/cell, combined treatment: overnight", "method": "H1975 and A549 cells were grown on glass coverslips in 12-well plates with the appropriate media, and fixed in 4% paraformaldehyde for 10 minutes at room temperature. Cells were permeabilizedin 0.5% TritonX100 in PBS×1 for 10 minutes at room temperature and then blocked in 5% BSA in 0.1% PBS×1-Tween for 1 hour at room temperature. Anti-phospho-Histone H2A.X primary antibody ([…]; 05-636-25UG) diluted 1:400 in 5% BSA in 0.1% PBS×1-Tween was added for 1 hour at room temperature. Fluorescent-dye conjugated secondary antibody was applied for 1 hour at room temperature. The coverslips were washed between each step with PBS×1. Nuclei were stained with DAPI (1:2000 dilution) at room temperature in the dark for 3 minutes. Coverslips were mounted on glass slides and imaged using an Olympus 1×81 microscope. For all treatments, cells with fewer than 80 foci were scored manually (FIG. 4B), and cells with more than 80 foci and very bright signals were scored automatically by using the “Analyze Particles” function in ImageJ (National Institutes of Health) after setting a suitable threshold.\nNext, the inventors examined whether combined treatment of cisplatin with c #2 or c #3 correlates with an increase in DNA damage, which might explain the compound's sensitization effect. A549 and H1975 cell lines were exposed to combined overnight treatment with cisplatin and c #2 or c #3, and the levels of γH2AX foci were monitored. In both cell lines, a clear increase in the number of foci was observed after combined treatment, compared to cells treated with cisplatin or compounds alone (FIG. 12A).\nCombined treatment of cisplatin with c #3 correlates with an increase in DNA damage. Levels of γ-H2AX foci, a marker for DNA double-strand breaks, were compared in H1975, A549 and B16F10 cell lines."}},
  "note": "Entries after “also recorded” stand apart in the source; their conditions may differ.",
  "data": [
    {"compound": "CNc1nc(N2CCCCC2)nc(-n2cnc(SCC(N)=O)n2)n1", "note": "[Compound 2]", "values": [
      {"measurement": "cell survival with cisplatin plus inhibitor", "setting": "U2OS cells", "result": "reduction in cell survival"},
      {"measurement": "survival rate, combined treatment", "setting": "A549 cells", "result": 50, "unit": "%"},
      {"measurement": "toxicity / cell viability, compound alone", "setting": "A549 cells", "result": "no reduction in cell viability"},
      {"measurement": "toxicity / cell viability, compound alone", "setting": "A549 cells; listed as c #2", "result": "caused no toxicity"},
      {"measurement": "sensitization effect to cisplatin", "setting": "A549 cells", "result": "approximately twofold sensitization effect"},
      {"measurement": "cell survival with cisplatin plus inhibitor", "setting": "A549 cells", "result": "reduction in cell survival"},
      {"measurement": "stabilization of folded MAD2L2 (in words)", "setting": "MAD2L2", "result": "stabilize the folded MAD2L2 protein"},
      {"measurement": "MAD2L2 aggregation temperature", "setting": "MAD2L2; normal conditions between 46° C. and 49° C.", "result": "milder change in MAD2L2's aggregation temperature"},
      {"measurement": "cells with more than 80 foci or very bright signal, combined treatment", "setting": "γH2AX foci in A549 cells", "result": "significantly more abundant"},
      {"measurement": "number of γH2AX foci/cell, combined treatment", "setting": "γH2AX foci in A549 cells", "result": "significant increase in the number of γH2AX foci/cell"}
    ]},
    {"compound": "Cc1oc(-c2ccco2)nc1CC(=O)N[C@@H](C(=O)O)c1ccccc1", "note": "[Compound 3]", "values": [
      {"measurement": "cell survival with cisplatin plus inhibitor", "setting": "U2OS cells", "result": "reduction in cell survival"},
      {"measurement": "survival rate, combined treatment", "setting": "A549 cells", "result": 50, "unit": "%"},
      {"measurement": "toxicity / cell viability, compound alone", "setting": "A549 cells", "result": "no reduction in cell viability"},
      {"measurement": "toxicity / cell viability, compound alone", "setting": "A549 cells; listed as c #3", "result": "caused no toxicity"},
      {"measurement": "sensitization effect to cisplatin", "setting": "A549 cells", "result": "approximately twofold sensitization effect"},
      {"measurement": "cell survival with cisplatin plus inhibitor", "setting": "A549 cells", "result": "reduction in cell survival"},
      {"measurement": "stabilization of folded MAD2L2 (in words)", "setting": "MAD2L2; listed as c #3", "result": "stabilize the folded MAD2L2 protein; also recorded: stronger binding affinity to MAD2L2 than c #2"},
      {"measurement": "increase in γ-H2AX foci/cell in co-treated cells", "setting": "γH2AX foci in A549 cells; A549, 10 μM cisplatin + 50 μM c #3, 16 h", "result": 2, "unit": "fold"},
      {"measurement": "cells with more than 80 foci or very bright signal, combined treatment", "setting": "γH2AX foci in A549 cells", "result": "significantly more abundant"},
      {"measurement": "number of γH2AX foci/cell, combined treatment", "setting": "γH2AX foci in A549 cells", "result": "significant increase in the number of γH2AX foci/cell"},
      {"measurement": "γ-H2AX signal, c #3 alone", "setting": "γH2AX foci in A549 cells; A549, c #3 alone", "result": "no effect on the γ-H2AX signal"}
    ]}
  ]
}
